23 compounds from US12371426B2, “Pyridazine derivatives as SMARCA2/4 degraders” (Aurigene Discovery Technologies Limited, priority 2018, dated 2025) can be followed below.

The IC50 is the concentration that inhibits the measured activity by half.

Chain of SMARCA2 (P51531 whole entry): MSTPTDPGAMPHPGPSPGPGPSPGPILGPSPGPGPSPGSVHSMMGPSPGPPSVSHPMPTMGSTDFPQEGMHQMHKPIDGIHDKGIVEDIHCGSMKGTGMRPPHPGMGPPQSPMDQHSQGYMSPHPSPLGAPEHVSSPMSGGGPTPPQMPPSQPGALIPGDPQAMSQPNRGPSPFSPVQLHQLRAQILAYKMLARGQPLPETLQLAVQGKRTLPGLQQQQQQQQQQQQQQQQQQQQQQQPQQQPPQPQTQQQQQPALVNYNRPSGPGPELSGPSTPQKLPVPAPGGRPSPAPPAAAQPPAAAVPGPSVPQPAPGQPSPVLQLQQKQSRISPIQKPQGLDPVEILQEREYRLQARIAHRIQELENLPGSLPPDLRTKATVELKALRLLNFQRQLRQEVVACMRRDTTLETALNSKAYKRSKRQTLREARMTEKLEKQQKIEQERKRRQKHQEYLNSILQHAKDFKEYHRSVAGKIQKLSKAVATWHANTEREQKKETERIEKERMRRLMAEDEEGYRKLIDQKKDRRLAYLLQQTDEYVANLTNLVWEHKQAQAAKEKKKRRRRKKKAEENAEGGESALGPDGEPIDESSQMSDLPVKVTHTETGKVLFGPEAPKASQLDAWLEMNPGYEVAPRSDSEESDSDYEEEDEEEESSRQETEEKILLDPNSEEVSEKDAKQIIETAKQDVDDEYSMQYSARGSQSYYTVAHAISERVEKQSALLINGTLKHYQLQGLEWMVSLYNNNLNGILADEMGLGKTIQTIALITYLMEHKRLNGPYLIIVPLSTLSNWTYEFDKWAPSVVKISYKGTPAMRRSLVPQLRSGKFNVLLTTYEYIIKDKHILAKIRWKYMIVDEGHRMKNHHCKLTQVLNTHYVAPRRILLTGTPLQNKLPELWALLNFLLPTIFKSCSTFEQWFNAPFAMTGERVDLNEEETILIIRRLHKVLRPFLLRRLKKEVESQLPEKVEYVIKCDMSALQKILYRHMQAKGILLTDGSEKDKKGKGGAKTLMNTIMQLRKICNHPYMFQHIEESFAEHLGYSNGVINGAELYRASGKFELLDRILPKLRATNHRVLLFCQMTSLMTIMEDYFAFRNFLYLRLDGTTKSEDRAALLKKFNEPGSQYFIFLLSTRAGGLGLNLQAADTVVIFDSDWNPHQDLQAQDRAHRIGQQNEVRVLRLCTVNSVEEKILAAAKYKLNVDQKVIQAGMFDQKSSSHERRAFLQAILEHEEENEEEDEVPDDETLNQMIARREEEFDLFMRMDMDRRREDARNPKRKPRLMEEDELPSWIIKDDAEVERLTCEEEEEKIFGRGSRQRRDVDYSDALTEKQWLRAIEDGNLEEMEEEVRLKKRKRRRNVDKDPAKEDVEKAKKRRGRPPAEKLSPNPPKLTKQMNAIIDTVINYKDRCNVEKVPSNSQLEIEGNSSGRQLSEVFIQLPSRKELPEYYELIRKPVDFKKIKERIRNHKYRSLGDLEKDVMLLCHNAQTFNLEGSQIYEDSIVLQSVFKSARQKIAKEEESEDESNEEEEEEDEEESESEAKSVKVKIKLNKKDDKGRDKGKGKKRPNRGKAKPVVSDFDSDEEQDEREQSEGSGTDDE

One assay relates to NCI-H929 cells. Description: Anti proliferative activity in NCI-H929 cell line by Cell Titer Glo assay. The following applies: Homo sapiens, 72 h, 3 days compound incubation, CellTiter Glo, read-out: Anti-proliferative activity IC50 group (NCI-H929 cells). The assay is classed as cell-based. How it is done: Determination of Anti Proliferative Activity of Compounds in NCI-H929 and NCI-H838 Cell Lines by Cell Titer Glo® (promega) assay:
NCI-H929 (ATCC CRL-9068) or NCI-H838 (ATCC CRL-5844) cells were seeded in 96 well plate flat black clear bottom plates (Corning, Cat. No 3904) using complete RPMI-1640 media. Next day, compounds listed in the present invention were added to cells from 10 mM stocks made in DMSO (Sigma Cat no. D2650). Each concentration of compound was tested in triplicate with DMSO concentration at a final percentage not exceeding 0.3 in the cells. After the compound incubation (3 days for H929 and 8 days for H838) assay was terminated using 50 μl of CellTiter Glo® reagent (Promega, Cat. no G7572). CellTiter Glo® Luminescent reagent determines the number of viable cells based on quantitation of ATP present which is an indicator of cell number and metabolic activity. Luminescence readings were taken in Victor-3 instrument. Percent inhibition of proliferation was calculated using formula, % inhibition=100−(luminescence value of test/luminescence value of DMSO control)*100. DMSO control (0%)=Cells in complete media with DMSO; blank=Media alone containing DMSO. IC50 was calculated using graph pad prism software.
Herein group “A” refers to IC50 value lower than 1 μM, “B” refers to IC50 value between 1-10 μM (both inclusive) and “C” refers to IC50 value higher than 10 μM or less than 50% activity at 10 μM.
For orientation: Cellular ATP, detected with luciferase, serves as a proxy for viable cell number.
On to `Cc1ncsc1-c1ccc([C@H](C)NC(=O)[C@@H]2C[C@@H](O)CN2C(=O)[C@@H](NC(=O)CN2CCN(c3cc(-c4ccccc4)nnc3N)CC2)C(C)(C)C)cc1` [Compound 46], for which the IC50 is greater than 10 µM.

Consider `Cc1ncsc1-c1ccc([C@H](C)NC(=O)[C@@H]2C[C@@H](O)CN2C(=O)[C@@H](NC(=O)CN2CCN(c3cc(-c4ccccc4O)nnc3O)CC2)C(C)(C)C)cc1` [Compound 54, (2S,4R)-4-hydroxy-1-((S)-2-(2-(4-(3-hydroxy-6-(2-hydroxyphenyl)pyridazin-4-yl)piperazin-1-yl)acetamido)-3,3-dimethylbutanoyl)-N—((S)-1-(4-(4-methylthiazol-5-yl)phenyl)ethyl)pyrrolidine-2-carboxamide], for which the IC50 was greater than 10 µM.

With `Cc1ncsc1-c1ccc(CNC(=O)[C@@H]2C[C@@H](O)CN2C(=O)[C@@H](NC(=O)COCCOCCNC(=O)C2CCN(c3cc(-c4ccccc4O)nnc3N)CC2)C(C)(C)C)cc1` [Compound 2], the half-maximal inhibitory concentration (IC50) was greater than 10 µM.

As to `Nc1nnc(-c2ccccc2O)cc1N1CCC(C(=O)NCCOCCOCC(=O)Nc2cccc3c2C(=O)N(C2CCC(=O)NC2=O)C3=O)CC1` (centres unmarked) [Compound 9], the IC50 was greater than 10 µM.

Take `Cc1ncsc1-c1ccc([C@H](C)NC(=O)[C@@H]2C[C@@H](O)CN2C(=O)[C@@H](NC(=O)CCCCC(=O)N2CCN(c3cc(-c4ccccc4O)nnc3N)CC2)C(C)(C)C)cc1` [Compound 110]: the IC50 was less than 1 µM.

Take `Cc1ncsc1-c1ccc([C@H](C)NC(=O)[C@@H]2C[C@@H](O)CN2C(=O)[C@@H](NC(=O)CN2CCN(c3cc(-c4ccccc4Cl)nnc3N)CC2)C(C)(C)C)cc1` [Compound 89]: the IC50 was greater than 10 µM.

In the case of `Cc1ncsc1-c1ccc(CNC(=O)[C@@H]2C[C@H](O)CN2C(=O)[C@@H](NC(=O)CN2CCN(c3cc(-c4ccccc4O)nnc3N)CC2)C(C)(C)C)cc1` [Compound 105], the IC50 fell in the range of 1 to 10 µM.

In the case of `Nc1nnc(-c2ccccc2O)cc1N1CCN(C(=O)CCCCCCCCCC(=O)Nc2cccc3c2CN(C2CCC(=O)NC2=O)C3=O)CC1` (centres unmarked) [Compound 27], the IC50 is greater than 10 µM.

On to `Cc1ncsc1-c1ccc([C@H](C)NC(=O)[C@@H]2C[C@@H](O)CN2C(=O)[C@@H](NC(=O)CN2CCN(c3cc(Cl)nnc3N)CC2)C(C)(C)C)cc1` [Compound 50, (2S,4R)-1-((S)-2-(2-(4-(3-amino-6-chloropyridazin-4-yl)piperazin-1-yl)acetamido)-3,3-dimethylbutanoyl)-4-hydroxy-N—((S)-1-(4-(4-methylthiazol-5-yl)phenyl)ethyl)pyrrolidine-2-carboxamide], for which the IC50 was greater than 10 µM.

Consider `Cc1ncsc1-c1ccc([C@H](C)NC(=O)[C@@H]2C[C@@H](O)CN2C(=O)[C@@H](NC(=O)CCCCCCC(=O)NC2CCN(c3cc(-c4ccccc4O)nnc3N)CC2)C(C)(C)C)cc1` [Compound 23], for which the concentration for half-maximal inhibition (IC50) was 1 to 10 µM.

Turning to `Cc1ncsc1-c1ccc([C@H](C)NC(=O)[C@@H]2C[C@@H](O)CN2C(=O)[C@@H](NC(=O)CC2CCN(c3cc(-c4ccccc4F)nnc3N)CC2)C(C)(C)C)cc1` [Compound 97], the half-inhibitory concentration (IC50) is 1 to 10 µM.

As to `Cc1ncsc1-c1ccc([C@H](C)NC(=O)[C@@H]2C[C@@H](O)CN2C(=O)[C@@H](NC(=O)CN2CCN(c3ccnnc3N)CC2)C(C)(C)C)cc1` [Compound 67, (2S,4R)-1-((S)-2-(2-(4-(3-aminopyridazin-4-yl)piperazin-1-yl)acetamido)-3,3-dimethylbutanoyl)-4-hydroxy-N—((S)-1-(4-(4-methylthiazol-5-yl)phenyl)ethyl)pyrrolidine-2-carboxamide], the half-inhibitory concentration (IC50) is greater than 10 µM.

For the compound `Cc1ncsc1-c1ccc(CNC(=O)[C@@H]2C[C@@H](O)CN2C(=O)[C@@H](NC(=O)CCCCCCC(=O)NC2CCN(c3cc(-c4ccccc4O)nnc3N)CC2)C(C)(C)C)cc1` [Compound 21], the half-maximal inhibitory concentration (IC50) is greater than 10 µM.

For the compound `Nc1nnc(-c2ccccc2O)cc1N1CCC(C(=O)NCCOCC(=O)Nc2cccc3c2C(=O)N(C2CCC(=O)NC2=O)C3=O)CC1` (centres unmarked) [Compound 6], the concentration for half-maximal inhibition (IC50) was greater than 10 µM.

With `Nc1nnc(-c2ccccc2O)cc1N1CCN(C(=O)CCCCCCC(=O)Nc2cccc3c2CN(C2CCC(=O)NC2=O)C3=O)CC1` (centres unmarked) [Compound 26], the IC50 is greater than 10 µM.

`Cc1ncsc1-c1ccc([C@H](C)NC(=O)[C@@H]2C[C@H](O)CN2C(=O)[C@@H](NC(=O)CN2CCN(c3cc(-c4ccccc4O)nnc3N)CC2)C(C)(C)C)cc1` [Compound 106]: the half-inhibitory concentration (IC50) lay within 1 to 10 µM.

Another assay has as its target SMARCA2 (Homo sapiens, UniProt P51531). Briefly: SMARCA2 degradation in NCI-H838 cells by Western blot. The assay is classed as cell-based. Details: endogenous in cells; host or cells: NCI-H838 (ATCC CRL-5844). To be noted: 16 hours. How it is done: Determination of SMARCA2 Degradation in NCI-1H838 Cells by Western Blot:
NCI-1H838 (ATCC CRL-5844) was plated in 6 well plates using complete RPMI-1640 media. Next day, compounds of present invention were added to cells from 10 mM stocks made in DMSO (Sigma Cat no. D2650). Each concentration of compound was tested with DMSO concentration not exceeding a final percentage of 0.3 in the cells. Cells were incubated with the compound for 16 hours followed by harvesting with 1× RIPA lysis buffer (Thermo Fischer, catalogue number #89900) containing protease inhibitor cocktail (Sigma catalogue number #P-8340). Equal amount of protein was loaded on SIDS PAGE gel for electrophoresis. Western blot was carried out for detection of SMARCA2 with antibody (Cell signaling technologies, catalogue number #11966). Beta Actin (Santa Cruz, catalogue number #69879) was used as loading control. Percentage of SMARCA2 degradation was calculated using formula % degradation=100−(normalized band intensity in treated sample/normalized band intensity in DMSO sample)*100”.
Selected compounds of the present invention were screened in the above mentioned assay procedures for determination of % SMARCA2 degradation at 100 nM and the results are summarized in below table 31.
Take `Nc1nnc(-c2ccccc2O)cc1N1CCN(CCCC(=O)Nc2cccc3c2C(=O)N(C2CCC(=O)NC2=O)C3=O)CC1` (centres unmarked) [Compound 70]: the “SMARCA2 @ 100 nM (% SMARCA2 degradation)” value is -11%.

With `Cc1ncsc1-c1ccc([C@H](C)NC(=O)[C@@H]2C[C@@H](O)CN2C(=O)[C@@H](NC(=O)CN2CCN(c3cc(-c4ccccc4O)nnc3N)CC2)C(C)(C)C)cc1.Cl` [Compound 65, (2S,4R)-1-((S)-2-(2-(4-(3-amino-6-(2-hydroxyphenyl)pyridazin-4-yl)piperazin-1-yl)acetamido)-3,3-dimethylbutanoyl)-4-hydroxy-N—((S)-1-(4-(4-methylthiazol-5-yl)phenyl)ethyl)pyrrolidine-2-carboxamide hydrochloride], the “SMARCA2 @ 100 nM (% SMARCA2 degradation)” value is reported as 94%.

As to `Cc1ncsc1-c1ccc(C(NC(=O)[C@@H]2C[C@@H](O)CN2C(=O)[C@@H](NC(=O)CC2CCN(c3cc(-c4cccc(F)c4O)nnc3N)CC2)C(C)(C)C)C(F)(F)F)cc1` (single isomer, unassigned) [Compound 78], the “SMARCA2 @ 100 nM (% SMARCA2 degradation)” value is given as 26%.

Take `Cc1ncsc1-c1ccc([C@H](C)NC(=O)[C@@H]2C[C@@H](O)CN2C(=O)[C@@H](NC(=O)CN2CCN(c3cc(C(N)=O)nnc3N)CC2)C(C)(C)C)cc1` [Compound 74, 6-amino-5-(4-(2-(((S)-1-((2S,4R)-4-hydroxy-2-(((S)-1-(4-(4-methylthiazol-5-yl)phenyl)ethyl)carbamoyl)pyrrolidin-1-yl)-3,3-dimethyl-1-oxobutan-2-yl)amino)-2-oxoethyl)piperazin-1-yl)pyridazine-3-carboxamide]: the “SMARCA2 @ 100 nM (% SMARCA2 degradation)” value stood at 21%.

As for `Cc1ncsc1-c1ccc([C@H](C)NC(=O)[C@@H]2C[C@@H](O)CN2C(=O)[C@@H](NC(=O)Cn2cc(-c3cc(-c4cccc(F)c4O)nnc3N)cn2)C(C)(C)C)cc1` [Compound 62, (2S,4R)-1-((S)-2-(2-(4-(3-amino-6-(3-fluoro-2-hydroxyphenyl)pyridazin-4-yl)-1H-pyrazol-1-yl)acetamido)-3,3-dimethylbutanoyl)-4-hydroxy-N—((S)-1-(4-(4-methylthiazol-5-yl)phenyl)ethyl)pyrrolidine-2-carboxamide], the “SMARCA2 @ 100 nM (% SMARCA2 degradation)” value stood at 27%.

Regarding `Cc1ncsc1-c1ccc([C@H](C)NC(=O)[C@@H]2C[C@@H](O)CN2C(=O)[C@@H](NC(=O)OC2CCN(c3cc(-c4ccccc4O)nnc3N)CC2)C(C)(C)C)cc1` [Compound 80], the “SMARCA2 @ 100 nM (% SMARCA2 degradation)” value came out at 13%.

As for `Cc1ncsc1-c1ccc([C@H](C)NC(=O)[C@@H]2C[C@@H](O)CN2C(=O)[C@@H](NC(=O)CN2CCN(c3cc(-c4ccccc4N)nnc3N)CC2)C(C)(C)C)cc1` [Compound 93], the “SMARCA2 @ 100 nM (% SMARCA2 degradation)” value is 74%.
